Reference: ChEMBL document CHEMBL5506008, “Synthesis and biological evaluation of 1-phenyl-tetrahydro-β-carboline-based first dual PRMT5/EGFR inhibitors as potential anticancer agents” (Eur J Med Chem, 2024)

Assays:
A549 = experiment: Antiproliferative activity against human A549 cells assessed as inhibition of cell growth by CCK-8 assay
[1] = biological target: Protein arginine N-methyltransferase 5 (Homo sapiens, UniProt O14744); experiment: Inhibition of PRMT5 (unknown origin) by radiometric-based scintillation proximity assay
Sequence of Protein arginine N-methyltransferase 5 (O14744 whole entry): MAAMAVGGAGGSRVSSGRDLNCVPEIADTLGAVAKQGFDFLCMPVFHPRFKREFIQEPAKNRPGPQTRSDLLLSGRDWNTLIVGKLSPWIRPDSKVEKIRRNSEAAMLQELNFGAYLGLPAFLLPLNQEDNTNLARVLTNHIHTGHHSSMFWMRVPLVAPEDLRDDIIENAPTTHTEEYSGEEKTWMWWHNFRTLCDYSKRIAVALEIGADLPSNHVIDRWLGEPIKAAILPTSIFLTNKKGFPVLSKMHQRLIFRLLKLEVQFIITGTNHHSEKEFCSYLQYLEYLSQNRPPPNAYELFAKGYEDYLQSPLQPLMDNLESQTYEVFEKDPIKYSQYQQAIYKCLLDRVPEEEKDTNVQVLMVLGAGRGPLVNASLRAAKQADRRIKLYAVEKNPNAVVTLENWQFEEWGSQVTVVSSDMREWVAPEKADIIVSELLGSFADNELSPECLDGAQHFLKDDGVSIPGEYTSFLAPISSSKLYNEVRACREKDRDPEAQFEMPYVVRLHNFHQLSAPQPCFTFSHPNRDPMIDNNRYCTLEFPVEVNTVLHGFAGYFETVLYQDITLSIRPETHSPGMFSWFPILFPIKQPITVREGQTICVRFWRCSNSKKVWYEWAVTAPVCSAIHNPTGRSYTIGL

MDA-MB-231 = experiment: Antiproliferative activity against human MDA-MB-231 cells assessed as inhibition of cell growth by CCK-8 assay
HepG2 = experiment: Antiproliferative activity against human HepG2 cells assessed as inhibition of cell growth by CCK-8 assay
[2] = Metabolic stability in human liver microsomes assessed as compound remaining at […] measured after 30 mins in presence of NADPH by LC-MS/MS analysis; type: ADME, Microsome; conditions: read-out: Stability
HeLa = experiment: Antiproliferative activity against human HeLa cells assessed as inhibition of cell growth by CCK-8 assay
[3] = Metabolic stability in rat liver microsomes assessed as compound remaining at […] measured after 30 mins in presence of NADPH by LC-MS/MS analysis; type: ADME, Microsome; conditions: read-out: Stability
MCF7 = experiment: Antiproliferative activity against human MCF7 cells assessed as inhibition of cell growth by CCK-8 assay
[4] = biological target: Epidermal growth factor receptor (Homo sapiens, UniProt P00533); experiment: Inhibition of wild type GST-tagged EGFR catalytic domain (unknown origin) expressed in insect cells using poly(Glu-Tyr) as substrate incubated for 6 mins by ELISA; parameters: species or system Insect cell
Sequence of Epidermal growth factor receptor (P00533 whole entry, the tested form may be a part): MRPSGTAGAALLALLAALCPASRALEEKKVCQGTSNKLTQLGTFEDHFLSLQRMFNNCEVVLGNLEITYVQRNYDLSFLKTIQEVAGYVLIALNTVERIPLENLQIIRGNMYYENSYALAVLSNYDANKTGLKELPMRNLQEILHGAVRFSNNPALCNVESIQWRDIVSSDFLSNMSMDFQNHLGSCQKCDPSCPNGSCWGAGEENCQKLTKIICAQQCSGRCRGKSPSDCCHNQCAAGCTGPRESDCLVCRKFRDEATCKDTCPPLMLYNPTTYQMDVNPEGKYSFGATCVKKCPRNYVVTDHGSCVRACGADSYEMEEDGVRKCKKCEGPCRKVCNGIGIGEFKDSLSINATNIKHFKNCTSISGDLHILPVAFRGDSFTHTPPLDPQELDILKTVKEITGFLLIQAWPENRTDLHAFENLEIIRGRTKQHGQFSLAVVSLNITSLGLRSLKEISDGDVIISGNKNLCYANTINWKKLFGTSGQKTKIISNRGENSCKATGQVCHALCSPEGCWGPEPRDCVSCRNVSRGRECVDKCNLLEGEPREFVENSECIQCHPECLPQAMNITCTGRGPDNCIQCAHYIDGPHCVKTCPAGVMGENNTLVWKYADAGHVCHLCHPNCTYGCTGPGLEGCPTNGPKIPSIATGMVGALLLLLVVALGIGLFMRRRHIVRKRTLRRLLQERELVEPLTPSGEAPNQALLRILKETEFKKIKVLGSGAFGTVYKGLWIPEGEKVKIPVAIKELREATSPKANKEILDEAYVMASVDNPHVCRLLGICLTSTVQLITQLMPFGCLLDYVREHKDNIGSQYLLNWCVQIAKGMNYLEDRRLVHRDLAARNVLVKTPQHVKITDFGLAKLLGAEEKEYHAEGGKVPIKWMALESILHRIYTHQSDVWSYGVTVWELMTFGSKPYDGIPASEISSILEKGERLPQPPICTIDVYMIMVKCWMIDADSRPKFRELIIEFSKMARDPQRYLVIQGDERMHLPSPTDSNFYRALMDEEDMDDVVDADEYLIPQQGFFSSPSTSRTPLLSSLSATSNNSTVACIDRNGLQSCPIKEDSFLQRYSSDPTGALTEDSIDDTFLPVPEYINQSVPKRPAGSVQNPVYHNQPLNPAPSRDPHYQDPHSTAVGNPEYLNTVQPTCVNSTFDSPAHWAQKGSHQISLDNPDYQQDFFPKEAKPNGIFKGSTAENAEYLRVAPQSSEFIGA

IC50 [1] | IC50 [4] | Compound | further results
41.3 µM | 51.4 µM | COc1cc(C2NCCc3c2[nH]c2ccccc32)ccc1OCc1ccc(F)c(Br)c1 (stereo not drawn) | IC50 (A549): 7.08 µM; IC50 (MDA-MB-231): > 50 µM; IC50 (HepG2): 36 µM; remaining at 0.5 h [2]: 65.4%; IC50 (HeLa): 6.86 µM; remaining at 0.5 h [3]: 57.8%; IC50 (MCF7): 7 µM
42.8 µM | 25.4 µM | COc1cc(C2NCCc3c2[nH]c2ccccc32)ccc1OCc1ccc(C(C)(C)C)cc1 (stereo not drawn) | IC50 (A549): 12.4 µM; IC50 (MDA-MB-231): 20.5 µM; IC50 (HepG2): 26.4 µM; remaining at 0.5 h [2]: 50.6%; IC50 (HeLa): 4.43 µM; remaining at 0.5 h [3]: 45.4%; IC50 (MCF7): 3.82 µM
46.3 µM | – | O=C(Nc1ccc(C2NCCc3c2[nH]c2ccccc32)cc1)c1cccc(Cl)c1 (stereo not drawn) | –
> 100 µM | > 100 µM | CN1CCc2c([nH]c3ccccc23)C1c1ccc(NC(=O)c2ccc(F)c(C(F)(F)F)c2)cc1 (stereo not drawn) | –
87.3 µM | 73.7 µM | O=C(Nc1ccc(C2NCCc3c2[nH]c2ccccc32)cc1)c1cccc(C(F)(F)F)c1 (stereo not drawn) | –
59.7 µM | 51.5 µM | O=C(Oc1ccc(C2NCCc3c2[nH]c2ccccc32)cc1)c1ccccc1 (stereo not drawn) | remaining at 0.5 h [2]: 16.4%; remaining at 0.5 h [3]: 12.3%
66.4 µM | > 100 µM | O=C(Nc1ccc(C2NCCc3c2[nH]c2ccccc32)cc1)c1ccc(F)c(C(F)(F)F)c1 (stereo not drawn) | –
> 100 µM | – | Cc1ccccc1C(=O)Nc1ccc(C2NCCc3c2[nH]c2ccccc32)cc1 (stereo not drawn) | –
> 100 µM | – | COC(=O)c1ccc(C(=O)Nc2ccc(C3NCCc4c3[nH]c3ccccc43)cc2)cc1 (stereo not drawn) | –
> 100 µM | > 100 µM | CN1CCc2c([nH]c3ccccc23)C1c1ccc(NC(=O)c2cccc(Cl)c2)cc1 (stereo not drawn) | –
76.4 µM | > 100 µM | COc1cc(C2NCCc3c2[nH]c2ccccc32)ccc1OCc1ccc(F)cc1Cl (stereo not drawn) | –
> 100 µM | – | O=C(Nc1ccc(C2NCCc3c2[nH]c2ccccc32)cc1)c1ccc([N+](=O)[O-])cc1 (stereo not drawn) | –
> 100 µM | – | O=C(Nc1ccc(C2NCCc3c2[nH]c2ccccc32)cc1)c1ccc(Br)cc1 (stereo not drawn) | –
> 100 µM | > 100 µM | CN1CCc2c([nH]c3ccccc23)C1c1ccc(NC(=O)c2cccc(C(F)(F)F)c2)cc1 (stereo not drawn) | –
23.2 µM | > 100 µM | COc1cc(COc2ccc(C3NCCc4c3[nH]c3ccccc43)cc2OC)ccc1F (stereo not drawn) | –
> 100 µM | – | Cc1cccc(C(=O)Nc2ccc(C3NCCc4c3[nH]c3ccccc43)cc2)c1 (stereo not drawn) | –
> 100 µM | > 100 µM | CN1CCc2c([nH]c3ccccc23)C1c1ccc(NC(=O)c2cccc([N+](=O)[O-])c2)cc1 (stereo not drawn) | –

The next lines start with the compound.

Compound | IC50 [1] | IC50 [4] | further results
COc1cc(C2NCCc3c2[nH]c2ccccc32)ccc1OCc1ccc(F)cc1Br (stereo not drawn) | 36.8 µM | 74.4 µM | IC50 (A549): 13.3 µM; IC50 (MDA-MB-231): 12.9 µM; IC50 (HepG2): > 50 µM; remaining at 0.5 h [2]: 61.1%; IC50 (HeLa): 7.15 µM; remaining at 0.5 h [3]: 66.5%; IC50 (MCF7): 7.46 µM
CN1CCc2c([nH]c3ccccc23)C1c1ccc(NC(=O)c2ccccc2)cc1 (stereo not drawn) | > 100 µM | > 100 µM | –
COc1cc(C2NCCc3c2[nH]c2ccccc32)ccc1OCc1ccccc1 (stereo not drawn) | 32.4 µM | > 100 µM | –
COc1cc(C2NCCc3c2[nH]c2ccccc32)ccc1OCc1ccc(F)cc1 (stereo not drawn) | > 100 µM | > 100 µM | –
CN1CCc2c([nH]c3ccccc23)C1c1ccc(OC(=O)c2ccccc2)cc1 (stereo not drawn) | > 100 µM | > 100 µM | –
COc1cc(C2NCCc3c2[nH]c2ccccc32)ccc1OCc1ccc(OC(F)(F)F)c(Cl)c1 (stereo not drawn) | 46.9 µM | 62.4 µM | IC50 (A549): 13.1 µM; IC50 (MDA-MB-231): 13.3 µM; IC50 (HepG2): 40.4 µM; remaining at 0.5 h [2]: 70%; IC50 (HeLa): 6.92 µM; remaining at 0.5 h [3]: 76.6%; IC50 (MCF7): 6.59 µM
COc1cc(C2NCCc3c2[nH]c2ccccc32)ccc1OCc1ccc(F)c(C#N)c1 (stereo not drawn) | > 100 µM | > 100 µM | –
O=C(Nc1ccc(C2NCCc3c2[nH]c2ccccc32)cc1)c1ccc(C(F)(F)F)cc1 (stereo not drawn) | > 100 µM | – | –
O=C(Nc1ccc(C2NCCc3c2[nH]c2ccccc32)cc1)c1ccccc1F (stereo not drawn) | > 100 µM | – | –
COc1cc(C2NCCc3c2[nH]c2ccccc32)ccc1OCc1ccc(B2OC(C)(C)C(C)(C)O2)cc1 (stereo not drawn) | > 100 µM | 85.8 µM | –
COc1cc(C2NCCc3c2[nH]c2ccccc32)ccc1OC(=O)c1ccccc1 (stereo not drawn) | 48.7 µM | 42.7 µM | remaining at 0.5 h [2]: 20.6%; remaining at 0.5 h [3]: 15.1%
COc1cc(C2NCCc3c2[nH]c2ccccc32)ccc1OCc1ccc(F)c(C(F)(F)F)c1 (stereo not drawn) | > 100 µM | > 100 µM | –
COc1cc(C2NCCc3c2[nH]c2ccccc32)ccc1OCc1ccc(C#N)cc1F (stereo not drawn) | 70.4 µM | 80.6 µM | IC50 (A549): 12.8 µM; IC50 (MDA-MB-231): 6.2 µM; IC50 (HepG2): > 50 µM; remaining at 0.5 h [2]: 40.6%; IC50 (HeLa): 13.3 µM; remaining at 0.5 h [3]: 35.9%; IC50 (MCF7): 13.1 µM
COc1cc(C2NCCc3c2[nH]c2ccccc32)ccc1OCc1ccccc1F (stereo not drawn) | 55.7 µM | > 100 µM | –
O=C(Nc1ccc(C2NCCc3c2[nH]c2ccccc32)cc1)c1ccc(F)cc1 (stereo not drawn) | > 100 µM | – | –
CN1CCc2c([nH]c3ccccc23)C1c1ccc(NC(=O)c2cccc(F)c2)cc1 (stereo not drawn) | > 100 µM | > 100 µM | –
COC(=O)c1ccc(COc2ccc(C3NCCc4c3[nH]c3ccccc43)cc2OC)c(F)c1 (stereo not drawn) | > 100 µM | 55.6 µM | –
O=C(Nc1ccc(C2NCCc3c2[nH]c2ccccc32)cc1)c1ccc(Cl)cc1 (stereo not drawn) | > 100 µM | – | –
COc1cc(C2c3[nH]c4ccccc4c3CCN2C)ccc1OC(=O)c1ccccc1 (stereo not drawn) | > 100 µM | 87.6 µM | –
O=C(Nc1ccc(C2NCCc3c2[nH]c2ccccc32)cc1)c1cccc(F)c1 (stereo not drawn) | 71.8 µM | 95.2 µM | –
O=C(Nc1ccc(C2NCCc3c2[nH]c2ccccc32)cc1)c1cc(C(F)(F)F)cc(C(F)(F)F)c1 (stereo not drawn) | > 100 µM | – | –
O=C(Nc1ccc(C2NCCc3c2[nH]c2ccccc32)cc1)c1ccccc1 (stereo not drawn) | 74.5 µM | 56.3 µM | –
O=C(Nc1ccc(C2NCCc3c2[nH]c2ccccc32)cc1)c1cccc([N+](=O)[O-])c1 (stereo not drawn) | 78.9 µM | 60.3 µM | –
